Source: ChEMBL document CHEMBL4017473, “Discovery of LRRK2 inhibitors by using an ensemble of virtual screening methods” (Bioorg Med Chem Lett, 2017)

Columns and labels:
[1] = biological target: Leucine-rich repeat serine/threonine-protein kinase 2 (Homo sapiens, UniProt Q5S007); experiment: Inhibition of full length wild-type LRRK2 (unknown origin) using biotinylated ezrin/radaxin/meosin peptide as substrate measured after 1 hr
[2] = biological target: Leucine-rich repeat serine/threonine-protein kinase 2 (Homo sapiens, UniProt Q5S007, G2019S); experiment: Inhibition of LRRK2 G2019S mutant (unknown origin) using biotinylated ezrin/radaxin/meosin peptide as substrate measured after 1 hr
Chain of Leucine-rich repeat serine/threonine-protein kinase 2 (Homo sapiens, UniProt Q5S007, G2019S) (Q5S007 whole entry G2019S): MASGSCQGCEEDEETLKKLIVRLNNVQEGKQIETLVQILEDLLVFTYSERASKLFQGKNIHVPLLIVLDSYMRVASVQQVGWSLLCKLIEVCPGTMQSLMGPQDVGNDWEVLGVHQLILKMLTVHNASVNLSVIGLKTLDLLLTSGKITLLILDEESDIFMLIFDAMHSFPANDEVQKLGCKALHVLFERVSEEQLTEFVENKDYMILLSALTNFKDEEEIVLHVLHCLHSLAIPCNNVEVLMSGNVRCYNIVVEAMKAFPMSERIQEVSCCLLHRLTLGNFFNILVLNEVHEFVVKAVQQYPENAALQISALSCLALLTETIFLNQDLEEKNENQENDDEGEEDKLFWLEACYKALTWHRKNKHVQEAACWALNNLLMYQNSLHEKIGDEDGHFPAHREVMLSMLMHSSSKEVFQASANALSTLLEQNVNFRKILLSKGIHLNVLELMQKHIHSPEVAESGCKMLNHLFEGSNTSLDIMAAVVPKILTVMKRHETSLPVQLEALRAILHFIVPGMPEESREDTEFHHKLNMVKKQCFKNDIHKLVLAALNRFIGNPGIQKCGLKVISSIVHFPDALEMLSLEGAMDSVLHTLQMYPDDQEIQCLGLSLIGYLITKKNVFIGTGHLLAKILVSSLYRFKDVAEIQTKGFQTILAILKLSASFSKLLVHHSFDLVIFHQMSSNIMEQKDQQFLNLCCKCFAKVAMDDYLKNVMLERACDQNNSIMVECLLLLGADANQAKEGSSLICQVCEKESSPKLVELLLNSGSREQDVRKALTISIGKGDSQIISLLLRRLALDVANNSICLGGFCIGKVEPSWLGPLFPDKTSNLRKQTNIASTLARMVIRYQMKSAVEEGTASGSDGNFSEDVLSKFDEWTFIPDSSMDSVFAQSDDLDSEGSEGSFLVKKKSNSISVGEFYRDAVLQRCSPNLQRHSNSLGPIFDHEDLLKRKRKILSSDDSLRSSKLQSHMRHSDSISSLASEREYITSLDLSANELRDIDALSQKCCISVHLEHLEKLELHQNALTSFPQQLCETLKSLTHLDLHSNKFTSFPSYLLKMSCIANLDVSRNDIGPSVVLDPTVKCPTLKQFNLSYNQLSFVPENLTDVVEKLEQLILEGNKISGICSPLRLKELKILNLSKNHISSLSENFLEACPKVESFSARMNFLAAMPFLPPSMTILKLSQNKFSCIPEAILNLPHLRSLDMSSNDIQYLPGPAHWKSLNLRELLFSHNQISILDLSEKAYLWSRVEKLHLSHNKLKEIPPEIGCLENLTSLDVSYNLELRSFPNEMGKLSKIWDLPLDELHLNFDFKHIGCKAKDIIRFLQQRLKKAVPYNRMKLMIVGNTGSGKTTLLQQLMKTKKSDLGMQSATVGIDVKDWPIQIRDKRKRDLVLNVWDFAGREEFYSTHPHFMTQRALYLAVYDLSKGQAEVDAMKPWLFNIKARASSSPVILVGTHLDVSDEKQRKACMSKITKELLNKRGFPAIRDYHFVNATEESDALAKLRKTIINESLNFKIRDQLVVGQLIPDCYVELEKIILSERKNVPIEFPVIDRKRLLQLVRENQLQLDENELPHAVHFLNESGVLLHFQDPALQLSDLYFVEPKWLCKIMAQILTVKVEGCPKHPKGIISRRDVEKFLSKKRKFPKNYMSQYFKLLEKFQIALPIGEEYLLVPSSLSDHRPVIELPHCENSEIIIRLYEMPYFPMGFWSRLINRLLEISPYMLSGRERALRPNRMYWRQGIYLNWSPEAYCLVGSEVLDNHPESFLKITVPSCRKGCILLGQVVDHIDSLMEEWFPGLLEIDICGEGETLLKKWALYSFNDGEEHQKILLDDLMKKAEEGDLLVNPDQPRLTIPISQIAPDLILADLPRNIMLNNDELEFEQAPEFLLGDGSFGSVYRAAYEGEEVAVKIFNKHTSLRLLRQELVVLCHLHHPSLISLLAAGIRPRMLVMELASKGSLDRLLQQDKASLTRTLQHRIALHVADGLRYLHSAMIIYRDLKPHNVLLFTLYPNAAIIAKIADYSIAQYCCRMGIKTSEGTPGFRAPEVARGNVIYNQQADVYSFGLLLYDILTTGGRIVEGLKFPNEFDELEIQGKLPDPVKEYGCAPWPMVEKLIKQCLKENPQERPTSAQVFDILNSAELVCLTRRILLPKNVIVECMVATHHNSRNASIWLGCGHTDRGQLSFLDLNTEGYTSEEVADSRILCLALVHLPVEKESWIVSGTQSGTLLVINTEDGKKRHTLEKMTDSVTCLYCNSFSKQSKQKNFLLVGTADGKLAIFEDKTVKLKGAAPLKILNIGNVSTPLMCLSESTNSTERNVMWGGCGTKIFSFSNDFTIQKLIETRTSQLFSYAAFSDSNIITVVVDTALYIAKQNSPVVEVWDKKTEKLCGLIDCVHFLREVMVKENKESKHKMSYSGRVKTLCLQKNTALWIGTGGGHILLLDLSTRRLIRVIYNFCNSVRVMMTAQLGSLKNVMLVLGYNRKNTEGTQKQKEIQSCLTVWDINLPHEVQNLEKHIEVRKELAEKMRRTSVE

Chain of Leucine-rich repeat serine/threonine-protein kinase 2 (Homo sapiens, UniProt Q5S007) (Q5S007 whole entry): as the sequence (Q5S007 whole entry G2019S) above, with S2019G counted along it

Compound | IC50 [1] | IC50 [2] | Ki [1]
c1cc(-c2n[nH]c3ccnc(OC4CCOCC4)c23)cc(N2CCCC2)n1 | 0.003 µM |  | 
Clc1c[nH]c2ncc(-c3cncc(N4CCOCC4)n3)cc12 |  | ≤ 0.5 µM | 
COc1cccc(Nc2nc(NCCO)c3nc[nH]c3n2)c1 | 0.084 µM | 0.048 µM | 
CCOc1ccc(Nc2nc(N3CCOCC3)c3nc[nH]c3n2)cc1 | 0.351 µM | 0.355 µM | 
O=c1[nH]ccc2nc(N3CCC(O)CC3)nc(Nc3cccc(C(F)(F)F)c3)c12 |  |  | 0.054 µM

Results, then the molecule that gave them:

IC50 [1] | IC50 [2] | Ki [1] | Compound
0.01 µM |  |  | Cc1ccccc1Nc1nc2ccc(-c3cc(C)c(O)c(C)c3)cn2n1
≤ 0.006 µM |  |  | C[C@@H](Nc1c(C(N)=O)nnc2cc(-c3ccncc3)ccc12)C1CC1
0.0013 µM | 0.0019 µM |  | COc1cc(N2CCOCC2)ccc1Nc1ncc(F)c(Nc2ccccc2NS(C)(=O)=O)n1
0.825 µM | 0.633 µM |  | NC(=O)c1ccc(Nc2nc(N3CCOCC3)c3ccccc3n2)cc1
0.343 µM | 0.274 µM |  | CCn1c(NC(=O)c2ccnc(-n3ccnc3)c2)nc2ccccc21
> 10 µM | > 10 µM |  | CN(C)S(=O)(=O)c1ccc(C(=O)Nc2nc3ccccc3n2-c2ccccc2)o1
